From article PMC8570541, “Real-time observation of tetrapyrrole binding to an engineered bacterial phytochrome” (Communications Chemistry, 2021)

Columns and labels:
miRFP709 = target: T1, miRFP709 (Rhodopseudomonas palustris, UniProt A0A161I5N6); test: time-resolved absorption and stimulated Raman spectroscopy; assay type: binding; details: covalent; thioether to Cys in PAS; pH 8.0, 20 mM Tris-HCl, 150 mM NaCl, DTT
T1 construct: engineered monomeric PAS-GAF fragment derived from RpBphP1; Cys in PAS only, none in GAF; about 35 kDa; N-terminal polyhistidine tag; apoprotein expressed in E. coli LMG194 without heme oxygenase
T1 sequence (A0A161I5N6 1-314 limits assumed): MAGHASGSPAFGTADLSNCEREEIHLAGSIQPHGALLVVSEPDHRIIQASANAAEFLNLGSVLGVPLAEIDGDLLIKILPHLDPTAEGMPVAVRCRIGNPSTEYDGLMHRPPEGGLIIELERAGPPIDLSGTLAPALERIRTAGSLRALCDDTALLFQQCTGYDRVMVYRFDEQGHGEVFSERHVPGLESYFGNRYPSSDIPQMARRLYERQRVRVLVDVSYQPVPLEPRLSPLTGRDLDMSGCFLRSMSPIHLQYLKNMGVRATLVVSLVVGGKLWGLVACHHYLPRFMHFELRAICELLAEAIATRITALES
Description: time-resolved absorption and stimulated Raman spectroscopy on miRFP709 | We assign the 18-min reaction to the covalent bond formation to Cys in the PAS

miRFP670 = target: T2, miRFP670 (Rhodopseudomonas palustris, UniProt A0A161I5N6, D200T/I252C, form not given); test: time-resolved absorption and stimulated Raman spectroscopy, SDS-PAGE; assay type: binding; details: covalent; Cys253 GAF thioether, then a second thioether to Cys20 PAS; pH 8.0, 20 mM Tris-HCl, 150 mM NaCl, DTT
T2 construct: engineered monomeric PAS-GAF fragment derived from RpBphP1; Cys20 (PAS) and Cys253 (GAF); about 35 kDa; N-terminal polyhistidine tag; apoprotein expressed in E. coli LMG194 without heme oxygenase
T2 sequence (A0A161I5N6 1-314 D200T/I252C limits assumed): as the sequence (A0A161I5N6 1-314 limits assumed) above, with D200T, I252C counted along it

time constant of C-S bond formation (Cys in PAS) (miRFP709): 18 min | time constant of C-S bond formation (Cys in GAF) (miRFP670): 4.3 min
Compound: C=CC1=C(C)C(=Cc2[nH]c(C=C3N=C(C=C4NC(=O)C(C)=C4C=C)C(C)=C3CCC(=O)O)c(CCC(=O)O)c2C)NC1=O [biliverdin]
